In patent US7342000B2, “Semisynthetic macrolide antibiotics of the azalide series” (GlaxoSmithKline istrazivacki center Zagreb, priority 2002, dated 2008):

Tests used:
Assay in all cases: MIC by broth dilution (NCCLS M7-A2)
Assay type in all cases: cell-based
Conditions in all cases: 90% growth inhibition
E. coli ATCC 25922 = tested on: E. coli ATCC 25922
Text: (§1) MIC levels for all compound were determinated on panel of susceptible, and resistant Gram positive bacterial strains (S. aureus, S. pneumoniae and S. pyogenes) and on Gram negative strains (E. coli, H. influenzae, […], M. catarrhalis).

E. faecalis ATCC 29212 = tested on: E. faecalis ATCC 29212
Text: as §1

H. influenzae ATCC 49247 = tested on: H. influenzae ATCC 49247
Text: as §1

[1] = tested on: M. catarrhalis ATCC 23246
Text: as §1

S. aureus ATCC 13709 = tested on: S. aureus ATCC 13709
Text: as §1

S. pneumoniae = tested on: S. pneumoniae
Text: as §1

S. pyogenes M = tested on: S. pyogenes M
Text: as §1

S. pyogenes iMLS = tested on: S. pyogenes iMLS
Text: as §1

S. pyogenes = tested on: S. pyogenes
Text: as §1

Row | SMILES | MIK (E. coli ATCC 25922) [µg/mL] | MIK (E. faecalis ATCC 29212) [µg/mL] | MIK (H. influenzae ATCC 49247) [µg/mL] | MIK [1] [µg/mL] | MIK (S. aureus ATCC 13709) [µg/mL] | MIK (S. pneumoniae) | MIK (S. pyogenes M) [µg/mL] | MIK (S. pyogenes iMLS) [µg/mL] | MIK (S. pyogenes)
1 | CCOC(=O)CNC(=O)NCCCN1CC(C)CC(C)(O)C(OC2OC(C)CC(N(C)C)C2O)C(C)C(OC2CC(C)(OC)C(O)C(C)O2)C(C)C(=O)OC(CC)C(C)(O)C(O)C1C (stereo not drawn) [Example 9, 9-Deoxo-9-dihydro-9a-N-(N′-ethoxycarbonylmethylcarbamoyl-γ-aminopropyl)-9a-aza-9a-homoerithromycin A] | >64 | >64 | 32 | 4 | 8 | ≦0.125 μg/ml | 64 | 16 | ≦0.125 μg/ml
2 | CC[C@H]1OC(=O)[C@H](C)[C@@H](O[C@H]2C[C@@](C)(OC)[C@@H](O)[C@H](C)O2)[C@H](C)[C@@H](O[C@@H]2O[C@H](C)C[C@H](N(C)C)[C@H]2O)[C@](C)(O)C[C@@H](C)CN(CCCNC(=O)NC(C)c2cccc3ccccc23)[C@H](C)[C@@H](O)[C@]1(C)O (stereo partly drawn) [Example 10] | 64 | 16 | 2 | 4 | 16 | 8 µg/mL | 16 | 8 | ≦0.125 μg/ml
3 | CC[C@H]1OC(=O)[C@H](C)[C@@H](O[C@H]2C[C@@](C)(OC)[C@@H](O)[C@H](C)O2)[C@H](C)[C@@H](O[C@@H]2O[C@H](C)C[C@H](N(C)C)[C@H]2O)[C@](C)(O)C[C@@H](C)CN(CCCNC(=O)Nc2cc(OC)c(OC)c(OC)c2)[C@H](C)[C@@H](O)[C@]1(C)O [Example 11, 9-Deoxo-9-dihydro-9a-N-[N′-(3,4,5-trimethoxyphenyl)carbamoyl-γ-aminopropyl]-9a-aza-9a-homoerithromycin A] | >64 | >64 | 16 | 16 | 4 | ≦0.125 μg/ml | 64 | 32 | ≦0.125 μg/ml
4 | CC[C@H]1OC(=O)[C@H](C)[C@@H](O[C@H]2C[C@@](C)(OC)[C@@H](O)[C@H](C)O2)[C@H](C)[C@@H](O[C@@H]2O[C@H](C)C[C@H](N(C)C)[C@H]2O)[C@](C)(O)C[C@@H](C)CN(CCCNC(=O)Nc2ccc3ccccc3c2)[C@H](C)[C@@H](O)[C@]1(C)O [Example 12, 9-Deoxo-9-dihydro-9a-N-[N′-(2-naphtyl)carbamoyl-γ-aminopropyl]-9a-aza-9a-homoerithromycin A] | 32 | 8 | 2 | 0.5 | 8 | 16 µg/mL | 8 | 2 | ≦0.125 μg/ml
5 | CC[C@H]1OC(=O)[C@H](C)[C@@H](O[C@H]2C[C@@](C)(OC)[C@@H](O)[C@H](C)O2)[C@H](C)[C@@H](O[C@@H]2O[C@H](C)C[C@H](N(C)C)[C@H]2O)[C@](C)(O)C[C@@H](C)CN(CCCNC(=O)N(CCC#N)c2cccc3ccccc23)[C@H](C)[C@@H](O)[C@]1(C)O [Example 28, 9-Deoxo-9-dihydro-9a-N-[N′-(β-cyanoethyl)-N′-(1-naphtyl)carbamoyl-γ-aminopropyl]-9a-aza-9a-homoerithromycin A] | 8 | 4 | 1 | 0.25 | 1 | ≦0.125 μg/ml | 4 | 2 | ≦0.125 μg/ml
6 | CCC1OC(=O)C(C)C(OC2CC(C)(OC)C(O)C(C)O2)C(C)C(OC2OC(C)CC(N(C)C)C2O)C(C)(O)CC(C)CN(CCCNC(=S)N(CCC#N)Cc2ccccc2)C(C)C(O)C1(C)O (stereo not drawn) [Example 30, 9-Deoxo-9-dihydro-9a-N-[N′-(β-cyanoethyl)-N′-benzylthiocarbamoyl-γ-aminopropyl]-9a-aza-9a-homoerithromycin A] | 16 | 8 | 2 | 1 | 1 | ≦0.125 μg/ml | 4 | 2 | ≦0.125 μg/ml
7 | CC[C@H]1OC(=O)[C@H](C)[C@@H](O[C@H]2C[C@@](C)(OC)[C@@H](O)[C@H](C)O2)[C@H](C)[C@@H](O[C@@H]2O[C@H](C)C[C@H](N(C)C)[C@H]2O)[C@](C)(O)C[C@@H](C)CN(CCCNC(=S)N(CCC#N)c2cccc3ccccc23)[C@H](C)[C@@H](O)[C@]1(C)O [Example 31, 9-Deoxo-9-dihydro-9a-N-[N′-(β-cyanoethyl)-N′-(1-naphtyl)thiocarbamoyl-γ-aminopropyl]-9a-aza-9a-homoerithromycin A] | 8 | 4 | 2 | 2 | 4 | ≦0.125 μg/ml | 4 | 4 | ≦0.125 μg/ml
8 | CC[C@H]1OC(=O)[C@H](C)[C@@H](O[C@H]2C[C@@](C)(OC)[C@@H](O)[C@H](C)O2)[C@H](C)[C@@H](O[C@@H]2O[C@H](C)C[C@H](N(C)C)[C@H]2O)[C@](C)(O)C[C@@H](C)CN(CCCNC(=O)N(CCC#N)c2ccccc2C(F)(F)F)[C@H](C)[C@@H](O)[C@]1(C)O [Example 32, 9-Deoxo-9-dihydro-9a-N-[N′-(β-cyanoethyl)-N′-(2-(trifluoromethyl)phenyl)carbamoyl-γ-aminopropyl]-9a-aza-homoerithromycin A] | 32 | 64 | 16 | 8 | 4 | ≦0.125 μg/ml | 32 | 8 | ≦0.125 μg/ml
9 | CC[C@H]1OC(=O)[C@H](C)[C@@H](O[C@H]2C[C@@](C)(OC)[C@@H](O)[C@H](C)O2)[C@H](C)[C@@H](O[C@@H]2O[C@H](C)C[C@H](N(C)C)[C@H]2O)[C@](C)(O)C[C@@H](C)CN(CCCNC(=O)N(CCC#N)CCCc2ccccc2)[C@H](C)[C@@H](O)[C@]1(C)O [Example 33, 9-Deoxo-9-dihydro-9a-N-[N′-(β-cyanoethyl)-N′-(3-phenylpropyl)carbamoyl-γ-aminopropyl]-9a-aza-9a-homoerithromycin A] | 16 | 16 | 2 | 1 | 1 | ≦0.125 μg/ml | 8 | 4 | ≦0.125 μg/ml
10 | CC[C@H]1OC(=O)[C@H](C)[C@@H](O[C@H]2C[C@@](C)(OC)[C@@H](O)[C@H](C)O2)[C@H](C)[C@@H](O[C@@H]2O[C@H](C)C[C@H](N(C)C)[C@H]2O)[C@](C)(O)C[C@@H](C)CN(CCCNC(=O)N(CCC#N)c2ccc3ccccc3c2)[C@H](C)[C@@H](O)[C@]1(C)O [Example 38, 9-Deoxo-9-dihydro-9a-N-[N′-(β-cyanoethyl)-N′-(2-naphtyl)carbamoyl-γ-aminopropyl]-9a-aza-9a-homoerithromycin A] | 32 | 8 | 2 | 0.5 | 1 | ≦0.125 μg/ml | 8 | 2 | ≦0.125 μg/ml
